The test system of assay [1] is human CXCR4. Description: MIF-triggered CXCR4-specific signaling in yeast (lacZ read-out). It counts as cell-based. The settings on record: co-incubation with MIF. How it is done:
(§1) Briefly, yeast transformants stably expressing human CXCR4 were grown overnight at 30 °C in yeast nitrogen base selective medium (Formedium, UK). Cells were diluted to an OD600 of 0.2 and grown to an OD600 of 0.3–0.6. […] OD600 was measured and activation of CXCR4 signaling quantified by β-galactosidase activity using a commercial BetaGlo Kit (Promega, Mannheim, Germany).

The subject of assay [2] is human CXCR4. In words: CXCL12-triggered CXCR4-specific signaling in yeast (lacZ read-out). It counts as cell-based. How it is done:
as §1

A further assay relates to MonoMac-6 / HAoEC. Description: MIF-induced static adhesion of MonoMac-6 monocytes to HAoECs. It counts as cell-based, human. As to the method:
HAoECs were seeded at a density of 30,000 cells/well in 6 well µ-Ibidi Perfusion slides VI 0.4 (Ibidi GmbH). […] After perfusion of the chambers with fresh medium, MonoMac6 cells (1 × 10^6 cells mL^−1) in PromoCell medium were added for 30 min. Non-adhering cells were flushed away by gentle perfusion using a 30 mL syringe. To quantify adherent monocytes, seven individual images (technical triplicates each) from each treatment were acquired using a Leica DMi8 inverted microscope with a ×10 objective and cells quantified using ImageJ.

Assay [3] deals with human monocyte-derived macrophages. Description: LDLR and CXCR4 cell surface levels in macrophages (flow cytometry, Reviewer-only Figure 4). Type of assay: cell-based. How it is done:
crosstalk, or might even imply that CXCR4 and LDLR colocalize/complex and are subjected to a joint internalization event.
We feel that these studies warrant further in-depth (and mechanistic) exploration, which are […]
in the manuscript. We have therefore prepared them as Reviewer-only Figure 4 below.
Supplementary part of the manuscript, we are happy to do so. […]
expression and endocytosis in human monocyte-derived macrophages. LDLR and CXCR4 cell surface levels were measured by flow cytometry. Experiments were performed in the presence of LDL and the […]
containing 100µg/mL penicillin, 100 µg/mL streptomycin, and 0.2% BSA) for 15 min at 37°C and subsequently exposed to LDL (25 µg/mL) for 15 min. After washing with PBS, cells were collected and incubated with anti-hLDLR-APC (1:100, R&D Systems, FAB2148A) and anti-CXCR4-PE (1:100, R&D Systems, FAB170P) at 4°C for 1 h. MIF stimulation enhances LDL-triggered internalization of LDLR and […]
The data shown are from one of two experiments
MIF dependent adhesion can be blocked, it is unclear whether MIF dependent adhesion to TNF-activated (since this stimulus seems relevant in in vivo settings) endothelial cells can be […]
Response: Thank you for this important point. […]
experiment and now include static adhesion data using TNF-primed endothelial cells in the […]
In general terms: A flow cytometer gives signals particle by particle.

Values joined by “and” are separate entries in the source; they are usually repeats but may differ in a detail not shown here. Identical values can stand only once.

Consider `CC[C@H](C)[C@H](NC(=O)[C@H](Cc1ccc(O)cc1)NC(=O)[C@H](CCCNC(=N)N)NC(=O)[C@H](CC(=O)O)NC(=O)CCCCCCCCCCCNC(=O)CCCCCNC(=O)[C@H](CCCCN)NC(=O)[C@H](CS)NC(=O)[C@H](CC(C)C)NC(=O)[C@H](Cc1ccccc1)NC(=O)[C@H](CC(N)=O)NC(=O)CNC(=O)[C@H](Cc1ccccc1)NC(=O)[C@H](Cc1ccc(O)cc1)NC(=O)[C@H](Cc1c[nH]c2ccccc12)NC(=O)[C@H](CC(N)=O)NC(=O)[C@H](C)NC(=O)[C@@H](NC(=O)[C@H](C)NC(=O)[C@@H](N)CC(=O)O)C(C)C)C(=O)N[C@@H](CS)C(=O)N[C@@H](CC(=O)O)C(=O)N[C@@H](CCCNC(=N)N)C(=O)N[C@@H](Cc1ccccc1)C(=O)N[C@@H](Cc1ccc(O)cc1)C(=O)N1CCC[C@H]1C(=O)N[C@@H](CC(N)=O)C(=O)N[C@@H](CC(=O)O)C(=O)N[C@@H](CC(C)C)C(=O)N[C@@H](Cc1c[nH]c2ccccc12)C(=O)N[C@H](C(N)=O)C(C)C` [msR4M-L1, CXCR4-ECL1[97–110]-6-Ahx-12-Ado-ECL2[182–196]], for which the “effect on MIF-triggered CXCR4 reporter signal” value with human CXCR4 [1] is reported as “blocked the β-galactosidase reporter signal in a concentration-dependent manner”. In addition, the “effect on CXCL12/CXCR4-elicited signaling” value in the assay with human CXCR4 [2] is “remained unaffected”. Besides, in the assay on MonoMac-6 / HAoEC (40 pM TNF-α pre-treatment, 320 nM msR4M-L1), the “effect on MIF-induced static monocyte adhesion, TNF-α-prestimulated HAoECs” value is on record as “abrogated the effect of MIF”. Besides, the “effect on MIF-induced static monocyte adhesion, resting HAoECs” value with MonoMac-6 / HAoEC (16 nM MIF, 320 nM msR4M-L1, 16 h) is recorded as “blocked the pro-adhesion effect of MIF”. Also, the “Fig. 5a, MIF-induced monocyte adhesion” value in the assay with MonoMac-6 / HAoEC (MIF + msR4M-L1, individual replicates, n = 4) was 56.3 and 56.9 and 61.4 and 42.3. Further, in assay [3] (80 nM MIF, 400 nM msR4M-L1, LDL 25 µg/mL, without MIF 15.1%, MIF alone 8.99%, one of two experiments), the “LDLR cell surface level (Q3), MIF + msR4M-L1” value stood at 12.6%. For the same compound, the “CXCR4 cell surface level (Q3), MIF + msR4M-L1” value in assay [3] (as E143, without MIF 39%, MIF alone […]) is on record as 48.7%.

For the origin of these results see paper PMC7689490, “Designed CXCR4 mimic acts as a soluble chemokine receptor that blocks atherogenic inflammation by agonist-specific targeting” (Nature Communications, 2020).
